This is an account of results in patent US6458811B1, “Benzothiophenes formulations containing same and methods” (Eli Lilly and Company, priority 1996, dated 2002).

The nature of series [1]: Particle size distribution by laser light diffraction (Horiba LA900). The series is classed as physicochemical. Particulars: hydrochloride. Here is the method:
In preparing the particulate compound of the invention a compound of formula I, in its raw state, is first characterized for size using an instrument adapted to measure equivalent spherical volume diameter, that is to say a Horiba LA900 Laser Scattering Particle Size Distribution Analyzer or equivalent instrument.
Sample is added to the dispersant until an acceptable level of laser light obscuration achieved at which point the particle size distribution is measured. […] The dispersant solution was filtered through a 0.2 micron microporous membrane filter to provide the necessary particle-free suspending dispersant.
Within five minutes of the preparation of the dispersion, triplicate particle size measurements were performed. Triplicate measurements are effected as a minimum check a) to produce more reliable measurements and b) to check the equivalent sampling of the suspended material has been reproducible i.e., the suspension has not settled.
From this, the mean equivalent spherical volume diameter value was derived (50% undersize value) together with the standard deviation of the distribution calculated as above.

The nature of series [2]: Surface area by nitrogen adsorption (BET). The format is physicochemical. Particulars: bulk lot.
Series [3] can be described thus: Dissolution of bulk lots handfilled into capsules, 0.1% aqueous polysorbate 80, USP Apparatus II. The series is classed as physicochemical. To be noted: hydrochloride; for % Dissolved: 60.0 mg in capsule; for % Dissolved at 10 Minutes: Table 8, 10 minutes; for % Dissolved at 30 Minutes: Table 8, 30 minutes. How it is done:
Data was collected at 10, 20, 30 and 45 minutes to produce a dissolution profile.

The nature of series [4]: Plasma AUC of unconjugated raloxifene in rats dosed in diet. The series is classed as in vivo, Fischer 344 rats. Particulars: 0.4% w/w in diet for seven days, hydrochloride. How it is done: In an attempt to evaluate these differences upon in vivo absorption, a study was conducted in Fischer 344 rats.
The test system of the next series is MCF-7 cells. To be noted: MCF-7 cells in cell culture; cited from earlier work.
The test system of series [5] is uterotrophic response to estrogen. Particulars: immature rats, versus tamoxifen; cited from earlier work.
The next series concerns uterotrophic response. Particulars: OVX rats; cited from earlier work.

Counter-ions that a name gives are not always drawn.

Regarding `O=C(c1ccc(OCCN2CCCCC2)cc1)c1c(-c2ccc(O)cc2)sc2cc(O)ccc12` [Lot #1, raloxifene hydrochloride], the 90% less than in series [1] (bulk lots of Table 6) was 6.8 μm. Besides, the “mean particle size” value in series [1] (bulk lots of Table 6) worked out at 3.9 μm. In series [2] (hydrochloride), the “Surface Area” value came to 6.09 m^2/gm. In addition, the “% Dissolved” value in series [3] (10 min) is recorded as 51%; in series [3] (20 min), 68%; in series [3] (30 min), 78%; in series [3] (45 min), 88%. Besides, the “% Dissolved at 10 Minutes” value in series [3] is reported as 50%. Further, the “% Dissolved at 30 Minutes” value in series [3] stood at 78%. Also, the AUC (in general, the area under the concentration-time curve, a measure of exposure) in series [4] turned out to be 10056 ng·h/mL.

Turning to `O=C(c1ccc(OCCN2CCCCC2)cc1)c1c(-c2ccc(O)cc2)sc2cc(O)ccc12` [Lot #3, raloxifene hydrochloride], the mean particle size in series [1] (as restated) amounted to 23.3 microns. Besides, the 90% less than amounted to 55.3 μm in series [1] (bulk lots of Table 6, Ball Milled bulk lot) and 89 μm in series [1] (bulk lots of Table 6, Slurry Milled bulk lot). Moreover, in series [2] (hydrochloride), the “Surface Area” value is 2.10 m^2/gm. Further, the “% Dissolved” value in series [3] (10 min) is given as 31%; in series [3] (20 min), 45%; in series [3] (30 min), 54%; in series [3] (45 min), 64%. Further, in series [3], the “% Dissolved at 10 Minutes” value came out at 31%. In addition, the “% Dissolved at 30 Minutes” value in series [3] worked out at 55%. The compound also had an AUC in series [4] of 5743 ng·h/mL.

For `O=C(c1ccc(OCCN2CCCCC2)cc1)c1c(-c2ccc(O)cc2)sc2cc(O)ccc12` [Raloxifene, 6-hydroxy-2-(4-hydroxyphenyl)-3-[4-(2-piperidinoethoxy)benzoyl]benzo[b]-thiophene], the “inhibition of estrogen-dependent proliferation” value in the series with MCF-7 cells was “inhibits estrogen-dependent proliferation”. Moreover, the “antagonism of the uterotrophic response to estrogen” value in series [5] is on record as “more effective than tamoxifen”. Moreover, the uterotrophic response result in the series with uterotrophic response is “only minimal uterotrophic response that was not dose-dependent”.

Consider `O=C(c1ccc(OCCN2CCCCC2)cc1)c1c(-c2ccc(O)cc2)sc2cc(O)ccc12` [Lot #2, raloxifene hydrochloride], for which the mean particle size is listed as 8.4 microns in series [1] (as restated) and 8.4 μm in series [1] (bulk lots of Table 6). Moreover, in series [1] (bulk lots of Table 6), the 90% less than is given as 13.9 μm. In addition, the “Surface Area” value was 2.28 m^2/gm in series [2] (listed as #2, hydrochloride) and 2.28 m^2/gm in series [2] (listed as lot #2, hydrochloride). For the same compound, the “% Dissolved” value in series [3] (10 min) was 41%; in series [3] (20 min) it was 60%; in series [3] (30 min) it was 68%; in series [3] (45 min), 74%. Further, in series [3], the “% Dissolved at 10 Minutes” value is reported as 41%. Further, the “% Dissolved at 30 Minutes” value in series [3] is 68%. For the same compound, the AUC in series [4] came out at 8037 ng·h/mL.

Take `O=C(c1ccc(OCCN2CCCCC2)cc1)c1c(-c2ccc(O)cc2)sc2cc(O)ccc12` [Lot #4, raloxifene hydrochloride]: the “% Dissolved” value in series [3] (10 min) was 15%; in series [3] (20 min), 27%; in series [3] (30 min), 35%; in series [3] (45 min), 49%. Further, in series [3], the “% Dissolved at 10 Minutes” value is 15%. For the same compound, the “% Dissolved at 30 Minutes” value in series [3] came out at 35%. This compound also showed an AUC in series [4] of 3329 ng·h/mL.
